Entries after “also recorded” stand apart in the source; their conditions may differ.
How the values were obtained:
[1] = test system: trigeminal neurons; assay: Whole-cell voltage-clamp recording in trigeminal neurons; assay type: cell-based, ICR mice; settings: 100 μM probenecid
[2] = biological target: T1, rTRPV2 (Rattus norvegicus, UniProt Q9WUD2, A713V/L151P/T158I); assay: Fluo-3 calcium imaging in TRPV2 transfected HEK293T cell line; assay type: cell-based
T1 construct: expressed in transfected cells; host or cells: HEK293T (ATCC CRL-11268)
T1 sequence (Q9WUD2 1-761 L151P/T158I/A713V): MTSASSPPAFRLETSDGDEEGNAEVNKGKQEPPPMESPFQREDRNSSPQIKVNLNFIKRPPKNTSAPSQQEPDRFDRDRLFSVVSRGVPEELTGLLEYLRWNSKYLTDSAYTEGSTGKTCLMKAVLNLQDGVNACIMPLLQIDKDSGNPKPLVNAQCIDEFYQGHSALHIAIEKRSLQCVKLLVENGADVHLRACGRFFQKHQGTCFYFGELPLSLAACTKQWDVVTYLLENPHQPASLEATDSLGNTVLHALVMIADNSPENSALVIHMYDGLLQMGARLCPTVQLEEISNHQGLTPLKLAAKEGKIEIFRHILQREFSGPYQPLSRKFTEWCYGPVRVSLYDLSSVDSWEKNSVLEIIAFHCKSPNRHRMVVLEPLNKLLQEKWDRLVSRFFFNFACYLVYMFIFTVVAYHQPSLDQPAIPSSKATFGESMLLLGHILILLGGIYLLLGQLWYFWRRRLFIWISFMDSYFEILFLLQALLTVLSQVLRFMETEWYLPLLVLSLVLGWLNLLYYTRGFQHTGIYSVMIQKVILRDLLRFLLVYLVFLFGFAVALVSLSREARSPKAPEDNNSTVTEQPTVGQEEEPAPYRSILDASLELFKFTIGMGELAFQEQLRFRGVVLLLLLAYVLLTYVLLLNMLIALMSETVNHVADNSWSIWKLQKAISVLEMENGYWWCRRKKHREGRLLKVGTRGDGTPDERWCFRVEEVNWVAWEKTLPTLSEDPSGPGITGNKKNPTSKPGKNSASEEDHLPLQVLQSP
Protocol: (§1) HEK293T cell line (ATCC CRL-1 1268) was transiently transfected with plasmid DNA containing polynucleotide encoding […] (SEQ. ID. NO: 1), rTRPV2 (SEQ. ID. NO: 2), mTRPV3 (SEQ. ID. NO: 3), rTRPV4 (SEQ. ID. NO: 4), mTRPM8 (SEQ. ID. NO: 5) or mTRPA1 (SEQ. ID. NO: 6).
(§2) Particularly, the HEK293T cell line was transiently transfected with individual TRP channel plasmid (pcDNA3.1 containing polynucleotide encoding rTRPV1, rTRPV2, mTRPV3, rTRPV4, mTRPM8 or mTRPA1), and 600 ng/well of pCDNA3 (Invitrogen Corp., USA; containing green fluorescent protein (GFP) cDNA) using Fugene6 (Roche Diagnostics, USA) according to manufacturer's instruction. The transformed cells were cultured in DMEM/F12 containing 10% FBS and 1% penicillin/streptomycin in a CO2 incubator for 24 hours. The cells were replated onto poly-L-lysine-coated glass coverslips, followed by further culture for 10-24 hours.
The TRPV2 transfected cell line prepared in Example 1 was treated with 100 μM probenecid and 300 μM 2-APB.
The TRPV2 transfected cell line prepared in Example 1 was treated with probenecid at different concentrations from 0.1 to 1,000 μM.
Particularly, the transfected cell line of Example <3-1> and Example <3-2> was loaded with Fluo-3AM (5 μM; Sigma Aldrich, USA) in the bath solution (140 mM NaCl, 5 mM KCl, 2 mM CaCl2, 1 mM MgCl2, 10 mM HEPES; adjusted to pH 7.4 with NaOH) containing 0.02% pluronic acid (Invitrogen, USA) at 37° C. for 1 hour. Calcium imaging was performed with a confocal microscope (LSM5 Pascal, Carl Zeiss, Germany), and time-lapse images (excitation 488 nm/emission 514 nm) were collected every 3 seconds using Carl Zeiss ratio tool software (Carl Zeiss, Germany).
The TRPA1, TRPV1, TRPV2, TRPV3, TRPV4 and TRPM8 transfected cell lines prepared by the method of Example 1 and the non-transfected HEK cell line (control group) were treated with 100 μM probenecid. Calcium imaging was performed with the transfected cell lines treated as the above by the same manner as described in Example <3-3>.

[3] = biological target: T1, rTRPV2; assay: Whole-cell voltage-clamp recording in TRPV2 transfected HEK293T cell line; assay type: cell-based; settings: 100 μM probenecid; +60 mV and −60 mV; n=5
Protocol: as §1, §2
The TRPV2 transfected cell line prepared in Example 1 was treated with 100 μM probenecid (Sigma-Aldrich, USA) and 300 μM 2-APB (2-aminoethoxydiphenyl borate; Cayman Chemical, USA), respectively. Stock solutions were made using water, DMSO or ethanol, and were diluted with test solutions before use.
Whole-cell voltage-clamp recording, one of the patch-clamp techniques, was performed with the transfected cell line of Example <1-1> according to the method of Bandel M, et al. (Neuron 41:849-857, 2004).
Particularly, the extracellular solution (140 mM NaCl, 5 mM KCl, 2 mM CaCl2, 1 mM MgCl2, 10 mM HEPES; titrated to pH 7.4 with NaOH) and the pipette solution (140 mM CsCl, 5 mM EGTA, 10 mM HEPES, 2.0 mM MgATP, 0.2 mM NaGTP; titrated to pH 7.2 with CsOH) were used. The potential was held at −60 mV for 250 ms, voltage-ramp pulsed from −80 mV to +80 mV for […] and returned to −60 mV for 250 ms, which was repeated without intersweep. This experiment was repeated 5 times.
The TRPV2 transfected cell line prepared by the method of Example 1 was treated with 100 μM probenecid, 100 μM probenecid+20 μM ruthenium red (Sigma-Aldrich, USA) and 300 μM 2-APB, respectively. […]

[4] = biological target: T2, mTRPA1 (Mus musculus, UniProt Q8BLA8); assay: Fluo-3 calcium imaging in TRPA1 transfected HEK293T cell line; assay type: cell-based; settings: 100 μM probenecid
T2 construct: expressed in transfected cells; host or cells: HEK293T (ATCC CRL-11268)
Protocol: as §1, §2
Particularly, the transfected cell line of Example <3-1> and Example <3-2> was loaded with Fluo-3AM (5 μM; Sigma Aldrich, USA) in the bath solution (140 mM NaCl, 5 mM KCl, 2 mM CaCl2, 1 mM MgCl2, 10 mM HEPES; adjusted to pH 7.4 with NaOH) containing 0.02% pluronic acid (Invitrogen, USA) at 37° C. for 1 hour. […]

T2 sequence (Q8BLA8 whole entry): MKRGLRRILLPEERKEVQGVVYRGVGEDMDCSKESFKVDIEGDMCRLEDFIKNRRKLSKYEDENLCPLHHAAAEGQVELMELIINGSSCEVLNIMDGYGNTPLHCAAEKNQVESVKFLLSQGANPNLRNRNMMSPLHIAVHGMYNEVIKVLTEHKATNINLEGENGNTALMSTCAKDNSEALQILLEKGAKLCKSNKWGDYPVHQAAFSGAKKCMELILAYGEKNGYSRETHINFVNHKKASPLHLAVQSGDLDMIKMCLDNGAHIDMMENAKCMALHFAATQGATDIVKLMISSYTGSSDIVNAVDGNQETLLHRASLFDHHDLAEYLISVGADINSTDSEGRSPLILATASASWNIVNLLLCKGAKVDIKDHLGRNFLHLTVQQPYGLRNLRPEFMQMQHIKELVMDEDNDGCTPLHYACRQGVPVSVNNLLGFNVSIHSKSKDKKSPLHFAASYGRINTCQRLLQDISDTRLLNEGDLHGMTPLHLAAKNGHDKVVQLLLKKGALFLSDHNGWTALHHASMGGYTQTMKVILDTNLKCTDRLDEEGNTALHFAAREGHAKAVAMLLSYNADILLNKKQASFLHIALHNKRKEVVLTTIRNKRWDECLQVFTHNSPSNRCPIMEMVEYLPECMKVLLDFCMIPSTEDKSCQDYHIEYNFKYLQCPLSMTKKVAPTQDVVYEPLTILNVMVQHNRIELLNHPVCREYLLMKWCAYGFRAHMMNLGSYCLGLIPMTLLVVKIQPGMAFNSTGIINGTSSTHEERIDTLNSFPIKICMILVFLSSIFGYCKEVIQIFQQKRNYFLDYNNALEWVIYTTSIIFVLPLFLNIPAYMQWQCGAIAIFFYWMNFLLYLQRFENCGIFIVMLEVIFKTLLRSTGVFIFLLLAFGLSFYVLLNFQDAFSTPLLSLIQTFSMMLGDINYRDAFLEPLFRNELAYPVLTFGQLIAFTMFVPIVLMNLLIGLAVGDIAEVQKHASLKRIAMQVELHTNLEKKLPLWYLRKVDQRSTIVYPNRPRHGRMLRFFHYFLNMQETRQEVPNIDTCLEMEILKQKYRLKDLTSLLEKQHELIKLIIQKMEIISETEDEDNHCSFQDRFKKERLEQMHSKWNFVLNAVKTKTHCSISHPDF

TRPV2 activation (calcium imaging) ([2]; 100 μM probenecid): activated
n (Hill plot of calcium influx responses) ([2]; n=12-62 per experimental value): 2.8
Kd ([2]; n=12-62 per experimental value, read-out: Kd (Hill plot of calcium influx responses)): 31.9 µM
maximal effective dose ([2]; probenecid 0.1 to 1,000 μM, calcium influx): about 1 mM
EC50 ([2]; probenecid 0.1 to 1,000 μM, calcium influx, read-out: EC50 (effective concentration 50%) on TRPV2): 31.9 µM
whole cell current (TRPV2 activation) [3]: significant increase of current
Structure (SMILES): CCCN(CCC)S(=O)(=O)c1ccc(C(=O)O)cc1 [probenecid]
probenecid induced currents in 2-APB-sensitive trigeminal neurons [1]: exhibited outward rectifying
TRPA1 activation (calcium imaging) [4]: only TRPV2 was activated; also recorded: not confirmed
